Data as given in article PMC10649086 (Antimicrobial Agents and Chemotherapy, 2023).

Tests used:
[1] = target: SARS-CoV-2 M^pro L50F + A173V (Severe acute respiratory syndrome coronavirus 2, UniProt P0DTC1, A3436V/L3313F); assay type: biochemical
SARS-CoV-2 M^pro G15S [2] = target: T1, SARS-CoV-2 M^pro G15S (Severe acute respiratory syndrome coronavirus 2, UniProt P0DTC1, G3278S); assay type: biochemical
[3] = target: SARS-CoV-2 M^pro T21I + T304I (Severe acute respiratory syndrome coronavirus 2, UniProt P0DTC1, T3284I/T3567I); assay type: biochemical
[4] = target: SARS-CoV-2 M^pro L50F + E166V (Severe acute respiratory syndrome coronavirus 2, UniProt P0DTC1, E3429V/L3313F); assay type: biochemical
[5] = target: SARS-CoV-2 M^pro L50F + E166A + L167F (Severe acute respiratory syndrome coronavirus 2, UniProt P0DTC1, E3429A/L3313F/L3430F); assay type: biochemical
[6] = target: SARS-CoV-2 M^pro L50F + F140L + L167F + T304I (Severe acute respiratory syndrome coronavirus 2, UniProt P0DTC1, F3403L/L3313F/L3430F/T3567I); assay type: biochemical
[7] = target: SARS-CoV-2 M^pro T21I + L50F (Severe acute respiratory syndrome coronavirus 2, UniProt P0DTC1, L3313F/T3284I); assay type: biochemical
[8] = target: SARS-CoV-2 M^pro T21I + S144A (Severe acute respiratory syndrome coronavirus 2, UniProt P0DTC1, S3407A/T3284I); assay type: biochemical
SARS-CoV-2 M^pro T21I = SARS-CoV-2 M^pro T21I (Severe acute respiratory syndrome coronavirus 2, UniProt P0DTC1, T3284I); assay type: biochemical
SARS-CoV-2 M^pro E166V = SARS-CoV-2 M^pro E166V (Severe acute respiratory syndrome coronavirus 2, UniProt P0DTC1, E3429V); assay type: biochemical
SARS-CoV-2 M^pro L50F = SARS-CoV-2 M^pro L50F (Severe acute respiratory syndrome coronavirus 2, UniProt P0DTC1, L3313F); assay type: biochemical
[9] = target: SARS-CoV-2 M^pro T135I + T304I (Severe acute respiratory syndrome coronavirus 2, UniProt P0DTC1, T3398I/T3567I); assay type: biochemical
[10] = target: SARS-CoV-2 M^pro T21I + L50F + A193P + S301P (Severe acute respiratory syndrome coronavirus 2, UniProt P0DTC1, A3456P/L3313F/S3564P/T3284I); assay type: biochemical
[11] = target: SARS-CoV-2 M^pro T21I + E166V (Severe acute respiratory syndrome coronavirus 2, UniProt P0DTC1, E3429V/T3284I); assay type: biochemical
[12] = target: SARS-CoV-2 M^pro T21I + S144A + T304I (Severe acute respiratory syndrome coronavirus 2, UniProt P0DTC1, S3407A/T3284I/T3567I); assay type: biochemical
[13] = target: SARS-CoV-2 M^pro T21I + C160F + A173V+ V186A + T304I (Severe acute respiratory syndrome coronavirus 2, UniProt P0DTC1, A3436V/C3423F/T3284I/T3567I/V3449A); assay type: biochemical
[14] = target: SARS-CoV-2 M^pro A173V + T304I (Severe acute respiratory syndrome coronavirus 2, UniProt P0DTC1, A3436V/T3567I); assay type: biochemical
SARS-CoV-2 M^pro K90R = SARS-CoV-2 M^pro K90R (Severe acute respiratory syndrome coronavirus 2, UniProt P0DTC1, K3353R); assay type: biochemical
SARS-CoV-2 M^pro T135I [15] = target: T2, SARS-CoV-2 M^pro T135I (Severe acute respiratory syndrome coronavirus 2, UniProt P0DTC1, T3398I); assay type: biochemical
SARS-CoV-2 M^pro A260V = SARS-CoV-2 M^pro A260V (Severe acute respiratory syndrome coronavirus 2, UniProt P0DTC1, A3523V); assay type: biochemical
[16] = target: SARS-CoV-2 M^pro T21I + A173V + T304I (Severe acute respiratory syndrome coronavirus 2, UniProt P0DTC1, A3436V/T3284I/T3567I); assay type: biochemical
SARS-CoV-2 M^pro Q189K = SARS-CoV-2 M^pro Q189K (Severe acute respiratory syndrome coronavirus 2, UniProt P0DTC1, Q3452K); assay type: biochemical
SARS-CoV-2 M^pro D248E [17] = target: T3, SARS-CoV-2 M^pro D248E (Severe acute respiratory syndrome coronavirus 2, UniProt P0DTC1, D3511E); assay type: biochemical
SARS-CoV-2 M^pro H172Y = SARS-CoV-2 M^pro H172Y (Severe acute respiratory syndrome coronavirus 2, UniProt P0DTC1, H3435Y); assay type: biochemical
SARS-CoV-2 M^pro S144A = SARS-CoV-2 M^pro S144A (Severe acute respiratory syndrome coronavirus 2, UniProt P0DTC1, S3407A); assay type: biochemical
SARS-CoV-2 M^pro E166A = SARS-CoV-2 M^pro E166A (Severe acute respiratory syndrome coronavirus 2, UniProt P0DTC1, E3429A); assay type: biochemical
[18] = target: SARS-CoV-2 M^pro T21I + A173V (Severe acute respiratory syndrome coronavirus 2, UniProt P0DTC1, A3436V/T3284I); assay type: biochemical
[19] = target: SARS-CoV-2 M^pro H172Y + P252L (Severe acute respiratory syndrome coronavirus 2, UniProt P0DTC1, H3435Y/P3515L); assay type: biochemical
[20] = target: SARS-CoV-2 M^pro L50F + T304I (Severe acute respiratory syndrome coronavirus 2, UniProt P0DTC1, L3313F/T3567I); assay type: biochemical
SARS-CoV-2 M^pro H164N [21] = target: T4, SARS-CoV-2 M^pro H164N (Severe acute respiratory syndrome coronavirus 2, UniProt P0DTC1, H3427N); assay type: biochemical
[22] = target: SARS-CoV-2 M^pro L50F + E166A (Severe acute respiratory syndrome coronavirus 2, UniProt P0DTC1, E3429A/L3313F); assay type: biochemical
[23] = tested on: SARS-CoV-2-EGFP replicon L50F + E166A + L167F; assay type: cell-based
[24] = tested on: SARS-CoV-2-EGFP replicon E166A; assay type: cell-based
[25] = tested on: SARS-CoV-2-EGFP replicon T21I; assay type: cell-based
[26] = tested on: SARS-CoV-2-EGFP replicon S144A; assay type: cell-based
[27] = tested on: SARS-CoV-2-EGFP replicon T21I + L50F; assay type: cell-based
[28] = tested on: SARS-CoV-2-EGFP replicon L50F + E166A; assay type: cell-based
[29] = tested on: SARS-CoV-2 D614G B.1 (ancestral); assay type: cell-based
[30] = tested on: SARS-CoV-2-EGFP replicon L167F; assay type: cell-based
[31] = tested on: SARS-CoV-2-EGFP replicon L50F; assay type: cell-based
SARS-CoV-2 M^pro P132H = settings: cited from earlier work
SARS-CoV-2 M^pro G15S [32] = target: T1, SARS-CoV-2 M^pro G15S; settings: cited from earlier work
SARS-CoV-2 M^pro H164N [33] = target: T4, SARS-CoV-2 M^pro H164N; settings: cited from earlier work
SARS-CoV-2 M^pro T135I [34] = target: T2, SARS-CoV-2 M^pro T135I; settings: cited from earlier work
SARS-CoV-2 M^pro D248E [35] = target: T3, SARS-CoV-2 M^pro D248E; settings: cited from earlier work

GC376
IC50 [1]: 60 nM
IC50 (SARS-CoV-2 M^pro G15S [2]): 20 nM
IC50 [3]: 50 nM
IC50 [4]: 430 nM
IC50 [5]: 760 nM
IC50 [6]: 170 nM
IC50 [7]: 20 nM
IC50 [8]: 120 nM
IC50 (SARS-CoV-2 M^pro T21I): 20 nM
IC50 (SARS-CoV-2 M^pro E166V): 660 nM
IC50 (SARS-CoV-2 M^pro L50F): 20 nM
IC50 [9]: 70 nM
IC50 [10]: 70 nM
IC50 [11]: 590 nM
IC50 [12]: 190 nM
IC50 [13]: 90 nM
IC50 [14]: 100 nM
IC50 (SARS-CoV-2 M^pro K90R): 10 nM
IC50 (SARS-CoV-2 M^pro T135I [15]): 20 nM
IC50 (SARS-CoV-2 M^pro A260V): 20 nM
IC50 [16]: 90 nM
IC50 (SARS-CoV-2 M^pro Q189K): 50 nM
IC50 (SARS-CoV-2 M^pro D248E [17]): 30 nM
IC50 (SARS-CoV-2 M^pro H172Y): 410 nM
IC50 (SARS-CoV-2 M^pro S144A): 120 nM
IC50 (SARS-CoV-2 M^pro E166A): 320 nM
IC50 [18]: 80 nM
IC50 [19]: 280 nM
IC50 [20]: 60 nM
IC50 (SARS-CoV-2 M^pro H164N [21]): 80 nM
IC50 [22]: 270 nM

N#C[C@H](C[C@@H]1CCCNC1=O)NC(=O)[C@H](CC1CC1)NC(=O)c1cc2cccc(Cl)c2[nH]1 [pomotrelvir]
EC50 ([23]; read-out: EC50 Mean (SD)): 1400 nM
EC90 ([23]; read-out: EC90 Mean (SD)): 8300 nM
EC50 ([24]; read-out: EC50 Mean (SD)): 110 nM
EC90 ([24]; read-out: EC90 Mean (SD)): 710 nM
EC50 ([25]; read-out: EC50 Mean (SD)): 33 nM
EC90 ([25]; read-out: EC90 Mean (SD)): 270 nM
EC50 ([26]; read-out: EC50 Mean (SD)): 92 nM
EC90 ([26]; read-out: EC90 Mean (SD)): 560 nM
EC50 ([27]; read-out: EC50 Mean (SD)): 110 nM
EC90 ([27]; read-out: EC90 Mean (SD)): 780 nM
EC50 ([28]; read-out: EC50 Mean (SD)): 410 nM
EC90 ([28]; read-out: EC90 Mean (SD)): 1800 nM
EC50 ([29]; read-out: EC50 Mean (SD)): 151 nM
EC90 ([29]; read-out: EC90 Mean (SD)): 547 nM
EC50 ([30]; read-out: EC50 Mean (SD)): 56 nM
EC90 ([30]; read-out: EC90 Mean (SD)): 510 nM
EC50 ([31]; read-out: EC50 Mean (SD)): 14 nM
EC90 ([31]; read-out: EC90 Mean (SD)): 150 nM

CC(C)(C)[C@H](NC(=O)C(F)(F)F)C(=O)N1C[C@H]2[C@@H]([C@H]1C(=O)N[C@H](C#N)C[C@@H]1CCNC1=O)C2(C)C [nirmatrelvir]
effect of P132H variant on inhibition (SARS-CoV-2 M^pro P132H): no effect
resistance in the Mpro assay (SARS-CoV-2 M^pro G15S [32]): ~fourfold
resistance in the Mpro assay (SARS-CoV-2 M^pro H164N [33]): ~fourfold
resistance in the Mpro assay (SARS-CoV-2 M^pro T135I [34]): ~fourfold
resistance in the Mpro assay (SARS-CoV-2 M^pro D248E [35]): ~fourfold
